From patent US5162203A, “Methods of measuring isozymes and isozyme classes of alcohol dehydrogenase” (President and Fellows of Harvard College, priority 1989, dated 1992)
Read-outs that look alike come from different tables or passages of the source.

Legend:
[1] = Spectral parameters for absorption and fluorescence of ADH substrates and products; format: physicochemical; settings: for Absorption εmax / Absorption λmax / Fluorescence .phi. (quantum yield) / Fluorescence λmax: Mes buffer (45 mM), pH 7.0
Protocol: The spectral parameters for 4-methoxy-1-naphthaldehyde (IA), 6-methoxy-2-naphthaldehyde (IIA) and their reduction products (IB and IIB, respectively) are shown in Table I.
Ultraviolet absorption spectra were measured on a Cary 219 or Hewlett-Packard 8451 spectrophotometer. Fluorescence measurements were made in a Perkin Elmer MPF3 spectrofluorometer, equipped with an Osram XBO 150 Watt Xenon lamp, an R446 photomultiplier, and thermostatted cell holder through which water was passed from a Poly-Temp circulator with the following spectrometer settings: excitation wavelength 316 nm. bandwidth 8 nm for both substrate IA and IIA; emission wavelength. 370 nm for substrate IA and 360 nm for substrate IIA, emission bandwidth 24 nm. Changes in fluorescence as a result of oxidation or reduction of the substrate was then measured in the ratio mode. Generally, for fluorometric reactions (see part 8 below). a sensitivity setting of 3 was used with compensation of fluorescence background by the zero suppression control of the instrument.
Aldehyde reduction was monitored by following the decrease of absorption at 340 nm in 40 mM Mes buffer, pH 7.1. in the presence of saturating NADH, 50 μM for Class I and 100 μM for Class II. […] Initial reaction rates were measured and kinetic parameters determined by conventional procedures as described by Segel, 1975, Enzyme Kinetics, pp. 591-597, Wiley, N.Y.

[2] = Stability of substrates and product solutions; format: physicochemical; settings: 200-400 μM, water with <5% ethanol
Protocol: The dilute solutions (300 μM) were prepared by diluting 1 ml of the stock solution to 10 ml with water.
Concentrations were determined spectrophotometrically using a molar absorptivity of 5700 M^-1 cm^-1 at 296 nm for IB and 1270 M^-1 cm^-1 at 330 nm for IIB.

[3] = Fluorescence quenching of alcohol products in 50-fold diluted serum; format: physicochemical, human; settings: 50-fold dilution of serum
Text: Human serum is known to fluoresce over a broad spectral region (Wolfbeis et al., 1985. Anal. Chim. Acta. 167:203-315); the instrumental settings should therefore be chosen to optimize the signal/background noise ratio. […] A 50-fold dilution of serum minimizes interference and maximizes sensitivity. At this dilution, alcohol product IB is only quenched 15% while IIB is quenched 5%. […] The cause of this background fluorescence is unknown

Class I ADH [4] = assay: Inhibition of Class I ADH; format: biochemical, human; settings: for Class I ADH activity abolished: 0.2 mM inhibitor
Protocol: (§1) The linear increase of fluorescence was then recorded for 1-10 minutes, until 0.03-1 μM of substrate was consumed. Larger substrate consumption was not found to be desirable (described in subpart (c) below). After this period the instrument sensitivity setting was reduced 10-30 fold, the signal compensated once again by zero suppression (see part 6 above), and 60 μl of 200-400 μM product (e.g., product IB or IIB) was added to provide an internal standard. The added product fluorescence intensity was then measured Fluorescence measurements were optimized for samples with low activity (<1 nM/minute). For samples with higher activity, repeat measurements were made with the serum volume reduced from 60 μl to 10 μl. Rates measured in the presence of the 0.2 mM ADH inhibitors. 4-MeP or 4-PeP, were made by adding 50 μl of 12 mM inhibitor to the cuvette prior to the assay buffer, and the reaction was carried out as above.
(§2) Aldehyde reduction and 4-MeP inhibition are near optimal at pH 7.6 which was adopted for the study of serum samples.
(§3) The values for these constants were determined with purified Class II ADH or a mixture of purified Class I isozymes, under the fluorometric assay conditions described above in Example 1.

Class III ADH = target: T1, Class III ADH (Homo sapiens, UniProt P11766); assay: Inhibition of Class III ADH; format: biochemical
T1 construct: Adult human livers were obtained at autopsy; from tissue; host or cells: human liver obtained at autopsy
T1 sequence (P11766 2-374 limits assumed): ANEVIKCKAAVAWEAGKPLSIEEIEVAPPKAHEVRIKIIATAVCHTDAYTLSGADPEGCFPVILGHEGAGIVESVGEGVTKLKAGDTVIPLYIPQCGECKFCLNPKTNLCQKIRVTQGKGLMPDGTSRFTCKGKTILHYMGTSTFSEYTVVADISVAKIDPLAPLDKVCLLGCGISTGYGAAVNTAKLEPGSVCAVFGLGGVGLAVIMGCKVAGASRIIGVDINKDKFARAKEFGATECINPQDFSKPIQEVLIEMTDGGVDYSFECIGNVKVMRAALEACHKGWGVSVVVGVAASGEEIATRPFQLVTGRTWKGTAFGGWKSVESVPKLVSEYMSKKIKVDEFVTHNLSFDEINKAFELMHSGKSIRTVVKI
Protocol: With a high Km value of >0.5 mM, substrate IIA is completely insensitive for Class III ADH. Because Class III ADH has greater hydrophobic selectivity than Classes I and II ADH, naphthaldehydes and quinoline aldehydes which have aliphatic side chains may provide adequate sensitivity for measuring the amount of Class III ADH in serum. In addition because of its greater hydrophobic selectivity, inhibitor compounds such as 4-alkylpyrazoles having aliphatic side chains of 5 carbons (e.g., 4-PeP) or greater may provide, under certain conditions and at certain concentrations, adequate selectivity for measuring Class III ADH in the presence of Classes I and II. […] At 100 μM 4-PeP, the values for inhibition are: Classes I and II, >90%; Class III <10%. Thus, under certain conditions 4-PeP is clearly useful as a selective inhibitor of Class I and II activities, leaving >90% of Class III activity intact and measurable.

[5] = target: T2, ADH activity in human serum (Homo sapiens, UniProt P08319); assay: Inhibition of ADH activity in human sera; format: biochemical; settings: 17 healthy volunteers
T2 construct: from tissue; host or cells: human serum of patients and volunteers
T2 sequence (P08319 whole entry): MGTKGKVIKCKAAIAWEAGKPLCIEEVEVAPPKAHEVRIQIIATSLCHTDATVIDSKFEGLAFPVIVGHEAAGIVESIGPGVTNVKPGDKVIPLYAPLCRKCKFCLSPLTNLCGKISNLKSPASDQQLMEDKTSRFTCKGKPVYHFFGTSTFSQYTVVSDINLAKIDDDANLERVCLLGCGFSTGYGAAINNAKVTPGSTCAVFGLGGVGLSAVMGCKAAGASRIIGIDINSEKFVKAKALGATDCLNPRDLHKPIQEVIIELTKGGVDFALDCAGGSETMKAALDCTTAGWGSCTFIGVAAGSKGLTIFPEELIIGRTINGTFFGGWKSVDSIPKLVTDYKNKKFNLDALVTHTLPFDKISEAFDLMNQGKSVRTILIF
Protocol: as §1
(§4) The activities of a large group of serum samples were further examined for inhibition by 4-MeP and 4-PeP, both at 0.2 mM, a concentration that abolishes 95-98% of the Class I and Class II ADH activity as shown in Table IV above. […] In contrast, 4-PeP inhibited activity toward IA by greater than […] and IIA by more than 90% in virtually all samples examined (FIG. 8C). The total number of samples examined was 83 for FIG. 8A, 105 for FIG. 8B, and 44 for FIG. 8C.
(§5) Sera whose ADH activity was increased beyond those seen normally were selected based on the modified NDMA assay as described in part 7 of Example 1. In approximately 3% of several hundred random hospital patients tested, elevations in ADH activity were observed using the modified NDMA assay described in part 7 of Example 1. These sera with elevated levels (>2 NDMA mU/ml) were then tested by the fluorometric assay described in part 8 of Example 1 using IA as substrate. Class I ADH activity was detected in nearly all of those classified as having elevated ADH levels by the NDMA criterion. The fluorescent reaction product was analyzed and confirmed to be the alcohol ADH product IB. The observed reaction was inhibited >95% by 3 mM 4-MeP; this confirmed that the activity observed was due primarily to Class I ADH. The rate of reduction of IA was also diminished by the addition of high concentrations (>>Km) of typical ADH substrates, e.g., 0.5 mM benzaldehyde or butyraldehyde, presumably due to competition. […] The optimal dilution for routine measurements was approximately 50-fold.

[6] = tested on: ADH activity in human serum; assay: Inhibition of ADH activity in human sera; format: biochemical; settings: for effect on rate of reduction of IA in sera with elevated ADH: 0.5 mM
Protocol: as §1, §4, §5

Class I ADH [7] = assay: Inhibition of Class I ADH; format: biochemical, human
Class II ADH [8] = target: T3, Class II ADH (Homo sapiens, UniProt P08319); assay: Inhibition of Class II ADH; format: biochemical; design: was used to purify Class II ADH from human livers; from tissue; host or cells: human liver
T3 sequence (P08319 2-380 limits assumed): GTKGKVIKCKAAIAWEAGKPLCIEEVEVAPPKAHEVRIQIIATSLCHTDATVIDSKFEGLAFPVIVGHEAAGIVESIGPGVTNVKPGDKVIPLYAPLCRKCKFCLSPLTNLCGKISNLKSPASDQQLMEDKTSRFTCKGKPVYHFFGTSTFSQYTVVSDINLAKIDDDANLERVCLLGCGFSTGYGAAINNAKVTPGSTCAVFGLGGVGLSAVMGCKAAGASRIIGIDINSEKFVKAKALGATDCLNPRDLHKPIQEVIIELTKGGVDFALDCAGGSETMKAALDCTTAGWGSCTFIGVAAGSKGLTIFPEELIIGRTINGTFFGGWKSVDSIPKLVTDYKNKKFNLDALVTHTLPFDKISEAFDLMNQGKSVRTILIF
Protocol: as §1, §2, §3

β1 β1 ADH (Class I) = assay: Inhibition of β1β1 (ββ) ADH; format: biochemical, human
Protocol: as §1, §2

β2 β2 ADH (Class I) = target: T4, β2 β2 ADH (Class I) (Homo sapiens, UniProt P00325); assay: Inhibition of β2β2 ADH; format: biochemical; settings: 0.2 mM 4-MeP
T4 construct: beta2 allele (ADH1B*2)
T4 sequence (P00325 2-375): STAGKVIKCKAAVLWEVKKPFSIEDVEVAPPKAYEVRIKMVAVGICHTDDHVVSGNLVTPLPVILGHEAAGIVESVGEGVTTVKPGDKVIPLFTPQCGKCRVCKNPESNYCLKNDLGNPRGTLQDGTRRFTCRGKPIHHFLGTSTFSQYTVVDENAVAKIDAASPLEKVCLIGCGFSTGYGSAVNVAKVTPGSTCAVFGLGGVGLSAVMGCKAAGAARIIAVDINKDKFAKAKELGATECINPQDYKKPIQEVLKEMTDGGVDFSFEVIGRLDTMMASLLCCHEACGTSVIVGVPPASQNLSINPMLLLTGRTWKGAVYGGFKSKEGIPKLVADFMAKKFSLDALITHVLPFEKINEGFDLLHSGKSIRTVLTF
Protocol: as §1, §2

Class II ADH [9] = target: T3, Class II ADH; settings: Class II versus other ADH isozymes; cited from earlier work
[10] = 1 mM 4-PeP, pH 10, 0.1M glycine buffer
[11] = 0.2 mM inhibitor, read-out: Class II ADH activity abolished

COc1ccc2cc(CO)ccc2c1 [IIB, 6-methoxy-2-naphthalenemethanol]
Absorption εmax [1]: 1,250 M^-1 cm^-1
Absorption λmax [1]: 329 nm
Fluorescence .phi. (quantum yield) [1]: 0.26
Fluorescence λmax [1]: 355 nm
molar absorptivity ([1]; at 330 nm): 1270 M⁻¹ cm⁻¹
stability of product solutions [2]: stable for up to a week
fluorescence quenching [3]: 5%

CCCCCc1cn[nH]c1 [4-PeP, 4-Pentylpyrazole]
Class I ADH activity abolished (Class I ADH [4]): 95-98%
inhibition of Class I activity (Class I ADH [4]; 4-PeP, substrate IA): greater than 99%
inhibition at 100 µM (Class III ADH; 100 μM 4-PeP): < 10%
inhibition at 1000 µM (Class III ADH; [10]): 60%
activity at 100 µM (Class III ADH; 4-PeP, under certain conditions, read-out: Class III activity left intact and measurable): > 90%
effect on activity towards IIA in normal sera ([5]; 0.2 mM 4-PeP): abolished
inhibition of IIA activity in sera ([6]; 0.2 mM 4-PeP, virtually all samples (44)): more than 90%
inhibition (Class I ADH [7]; 100 μM 4-PeP): > 90%
inhibition of activity (Class I ADH [7]; [10]): > 99.99%
inhibition at 100 µM (Class II ADH [8]; 100 μM 4-PeP): > 90%
inhibition at 200 µM (Class II ADH [8]; [11]): 95 to 98%
inhibition at 1000 µM (Class II ADH [8]; [10]): > 100%
inhibition of Class II activity (Class II ADH [8]; 4-PeP, substrate IIA): more than 90%

Cc1cn[nH]c1 [4-MeP, 4-Methylpyrazole]
inhibition of all Class I isozymes (Class I ADH [4]; 0.2 mM 4-MeP, 15 μM IA or IIA, pH 7.6): more than 90%
4-MeP Inhibition (Class I ADH [4]; 0.2 mM 4-MeP, substrate IA): 98%
b: Class I activity fraction retained (Class I ADH [4]; 0.2 mM 4-MeP, substrate IA): 0.025
4-MeP Inhibition (Class I ADH [4]; 0.2 mM 4-MeP, substrate IIA, average for Class I except ββ): 92%
Class I ADH activity abolished (Class I ADH [4]): 95-98%
enhancement of assay specificity for Class I and II isozymes with the two substrates (Class I ADH [4]; 4-MeP, Class I relative to Class II): about 100 fold
4-MeP Inhibition (β1 β1 ADH (Class I); 0.2 mM 4-MeP, substrate IA): ~ 95%
4-MeP Inhibition (β1 β1 ADH (Class I); 0.2 mM 4-MeP, substrate IIA): 98%
e: fraction of ββ-ADH activity uninhibited (β1 β1 ADH (Class I); 0.2 mM 4-MeP, substrate IIA): 0.025
inhibition of Class I ββ isozymes (β1 β1 ADH (Class I); words): inhibited readily
4-MeP Inhibition (β2 β2 ADH (Class I); substrate IA, nm = not measurable): nm
inhibition at 200 µM (β2 β2 ADH (Class I); substrate IIA): 97%
effect on activity towards IIA in normal sera ([5]; 4-MeP): insensitive
activity toward IIA remaining in sera ([6]; 0.2 mM 4-MeP, 105 samples): ≥ 70%
inhibition of IA activity in sera ([6]; 0.2 mM 4-MeP, majority of samples (83)): more than 90%
inhibition of IA reaction in sera with elevated ADH ([6]; 3 mM 4-MeP): > 95%
inhibition at 200 µM (Class II ADH [8]; 0.2 mM 4-MeP, 15 μM IA or IIA, pH 7.6, read-out: inhibition of Class II ADH): 11%
inhibition at 200 µM (Class II ADH [8]; 0.2 mM 4-MeP, substrate IA, read-out: 4-MeP Inhibition): 11%
inhibition at 200 µM (Class II ADH [8]; 0.2 mM 4-MeP, substrate IIA, as fraction, read-out: c: degree of inhibition of Class II ADH): 11%
inhibition at 200 µM (Class II ADH [8]; [11]): 95 to 98%

O=Cc1ccccc1 [benzaldehyde]
effect on rate of reduction of IA in sera with elevated ADH [6]: diminished

CCO [ethanol]
Km for ethanol of Class II relative to other ADH isozymes (Class II ADH [9]): ≤ 100 times

COc1ccc(CO)c2ccccc12 [IB, 4-methoxy-1-naphthalenemethanol]
Absorption εmax [1]: 5,400 M^-1 cm^-1
Absorption λmax [1]: 297 nm
Fluorescence .phi. (quantum yield) [1]: 0.36
Fluorescence λmax [1]: 370 nm
molar absorptivity ([1]; at 296 nm): 5700 M⁻¹ cm⁻¹
stability of product solutions [2]: stable for up to a week
fluorescence quenching [3]: 15%

CCCC=O [butyraldehyde]
effect on rate of reduction of IA in sera with elevated ADH [6]: diminished
